Experimental data published in US20240116922A1, “IMIDAZO[1,2-A]PYRIDINE DERIVATIVES AS IRAK4 INHIBITORS AND THEIR USE IN THE TREATMENT OF DISEASE” (BIOGEN MA INC., priority 2020, published 2024).
Converted amounts (≈) assume the structure as drawn. Structures can show the parent of a compound that is named as a salt.

Experiments:
[1] = target: MDR1 (Homo sapiens (Human), UniProt P08183); assay: in vitro; details: MDCK-MDR1
[2] = target: IRAK4 (Homo sapiens (Human), UniProt Q9NWZ3); assay: IRAK4 MSD biochemical assay (2-hour 1 mM ATP); details: 0.1 nM IRAK4, 1 mM ATP, 2 hour at room temperature
Chain of IRAK4 (Q9NWZ3 whole entry): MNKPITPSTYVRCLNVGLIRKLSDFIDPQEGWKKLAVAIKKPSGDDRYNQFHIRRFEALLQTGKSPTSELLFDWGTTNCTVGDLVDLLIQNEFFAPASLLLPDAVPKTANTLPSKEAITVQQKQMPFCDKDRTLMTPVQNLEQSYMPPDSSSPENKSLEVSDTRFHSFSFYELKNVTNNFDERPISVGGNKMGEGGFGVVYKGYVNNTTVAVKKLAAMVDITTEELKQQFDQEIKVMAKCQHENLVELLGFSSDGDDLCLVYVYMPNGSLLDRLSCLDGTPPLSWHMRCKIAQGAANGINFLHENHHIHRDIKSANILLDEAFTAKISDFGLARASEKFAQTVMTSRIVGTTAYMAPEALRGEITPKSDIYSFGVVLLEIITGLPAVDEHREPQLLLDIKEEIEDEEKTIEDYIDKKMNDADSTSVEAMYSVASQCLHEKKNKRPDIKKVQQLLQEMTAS

[3] = Kinetic solubility assay (CLND), pH 6.8; assay type: physicochemical; details: aqueous buffer, kinetic from dmso stock; potassium phosphate buffer pH 6.8, 2% DMSO, 24 hours at ambient temperature

Chain of MDR1 (P08183 whole entry): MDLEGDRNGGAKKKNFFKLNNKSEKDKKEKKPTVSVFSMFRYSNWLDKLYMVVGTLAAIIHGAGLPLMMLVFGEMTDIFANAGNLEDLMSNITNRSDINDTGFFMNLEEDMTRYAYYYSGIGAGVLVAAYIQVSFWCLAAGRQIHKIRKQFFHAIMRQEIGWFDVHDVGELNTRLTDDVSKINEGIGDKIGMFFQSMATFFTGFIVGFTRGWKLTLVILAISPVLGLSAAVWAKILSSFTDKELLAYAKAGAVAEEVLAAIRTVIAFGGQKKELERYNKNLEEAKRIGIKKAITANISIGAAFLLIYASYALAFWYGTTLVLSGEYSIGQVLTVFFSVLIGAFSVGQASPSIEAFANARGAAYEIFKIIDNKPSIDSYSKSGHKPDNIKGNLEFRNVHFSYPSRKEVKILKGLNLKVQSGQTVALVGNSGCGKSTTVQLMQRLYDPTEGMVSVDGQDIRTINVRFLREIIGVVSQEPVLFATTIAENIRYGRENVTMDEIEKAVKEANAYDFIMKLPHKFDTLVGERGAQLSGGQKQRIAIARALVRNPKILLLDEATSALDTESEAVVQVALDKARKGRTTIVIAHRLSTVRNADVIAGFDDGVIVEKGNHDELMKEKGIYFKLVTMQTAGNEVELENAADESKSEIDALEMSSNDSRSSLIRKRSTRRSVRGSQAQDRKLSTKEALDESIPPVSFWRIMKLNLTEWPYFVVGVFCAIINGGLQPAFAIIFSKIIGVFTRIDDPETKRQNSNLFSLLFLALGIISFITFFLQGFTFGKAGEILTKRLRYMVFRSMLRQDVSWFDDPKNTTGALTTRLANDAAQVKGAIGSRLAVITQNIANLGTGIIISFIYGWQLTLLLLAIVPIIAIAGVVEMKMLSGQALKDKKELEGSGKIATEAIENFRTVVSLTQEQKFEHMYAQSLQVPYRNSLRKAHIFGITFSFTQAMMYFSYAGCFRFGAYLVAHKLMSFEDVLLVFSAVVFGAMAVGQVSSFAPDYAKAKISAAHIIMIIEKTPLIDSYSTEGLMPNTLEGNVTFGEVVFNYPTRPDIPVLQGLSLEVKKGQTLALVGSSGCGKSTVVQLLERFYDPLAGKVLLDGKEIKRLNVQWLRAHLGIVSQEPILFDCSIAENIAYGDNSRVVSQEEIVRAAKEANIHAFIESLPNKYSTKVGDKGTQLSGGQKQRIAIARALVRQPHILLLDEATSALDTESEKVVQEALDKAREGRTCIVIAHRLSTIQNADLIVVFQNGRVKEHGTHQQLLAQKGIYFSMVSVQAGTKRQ

Compound | efflux ratio at 120 min, 1 μM [1] | IC50 [2] [nM] | solubility kinetic at 24 h [3] [µg/mL]
CC[C@@H](C)Oc1nc2nc(C34COC(C)(C3)C4)cn2cc1C(=O)Nc1cccn([C@@H]2C[C@@H]2F)c1=O (mixture of isomers) [Example 41, 7-((R)-sec-butoxy)-N-(1-(cis-2-fluorocyclopropyl)-2-oxo-1,2-dihydropyridin-3-yl)-2-(1-methyl-2-oxabicyclo[2.1.1]hexan-4-yl)imidazo[1,2-a]pyrimidine-6-carboxamide] | 9.1 | 0.6 | –
CC(C)Oc1cc2nc([C@@]34CC[C@@](C)(C3)OC4)cn2cc1C(=O)Nc1cccn(C2CC2F)c1=O (mixture of isomers) [Example 99, N-(1-(2-fluorocyclopropyl)-2-oxo-1,2-dihydropyridin-3-yl)-7-isopropoxy-2-((1S,4R)-1-methyl-2-oxabicyclo[2.2.1]heptan-4-yl)imidazo[1,2-a]pyridine-6-carboxamide] | – | 0.4 | 62
CC(C)Oc1c(C(=O)Nc2cccn([C@@H]3C[C@@H]3F)c2=O)cn2cc(C34COC(C)(C3)C4)nc2c1F (racemic) [Example 91, (rac)-Cis-8-fluoro-N-(1-(2-fluorocyclopropyl)-2-oxo-1,2-dihydropyridin-3-yl)-7-isopropoxy-2-(1-methyl-2-oxabicyclo[2.1.1]hexan-4-yl)imidazo[1,2-a]pyridine-6-carboxamide] | 5.1 | 0.8 | –
CC[C@@H](C)Oc1nc2nc(C34COC(C)(C3)C4)cn2cc1C(=O)Nc1cccn([C@@H]2C[C@@H]2F)c1=O (single isomer, unassigned) [Example 57] | 7.9 | 23 | –
CC[C@H](C)Oc1nc2nc(C34COC(C)(C3)C4)cn2cc1C(=O)Nc1cccn([C@@H]2C[C@@H]2F)c1=O (single isomer, unassigned) [Example 59] | 9.4 | 9 | –
CC(C)Oc1nc2nc(C34COC(C)(C3)C4)cn2cc1C(=O)Nc1cccn([C@@H]2CC2(C)C)c1=O (single isomer, unassigned) [Example 78] | 2.1 | 11 | –
CC(C)Oc1nc2nc([C@H]3CCCOC3)cn2cc1C(=O)Nc1cccn(C2CC2)c1=O (single isomer, unassigned) [Example 107] | 3 | 0.3 | –
CC(C)Oc1nc2nc(C[C@H]3CCOC3)cn2cc1C(=O)Nc1cccn(C2CC2)c1=O (single isomer, unassigned) [Example 110] | 7 | 0.5 | –
CC(C)Oc1c(C(=O)Nc2cccn([C@H]3C[C@H]3F)c2=O)cn2cc([C@@]34CC[C@@](C)(C3)OC4)nc2c1F (single isomer, unassigned) [Example 125] | – | 0.5 | 39.9 (≈ 80 µM)
CC(C)Oc1c(C(=O)Nc2cccn([C@@H]3C[C@@H]3F)c2=O)cn2cc([C@]34CC[C@](C)(C3)OC4)nc2c1F (single isomer, unassigned) [Example 126] | 4.4 | 66.5 | –
CO[C@@H]1C[C@H]1n1cccc(NC(=O)c2cn3cc(C45COC(C)(C4)C5)nc3nc2OC(C)C)c1=O (single isomer, unassigned) [Example 137] | 4.8 | 1.4 | –
CO[C@H]1C[C@@H]1n1cccc(NC(=O)c2cn3cc(C45COC(C)(C4)C5)nc3nc2OC(C)C)c1=O (single isomer, unassigned) [Example 138] | 3.8 | 6.3 | –
CC(C)Oc1nc2nc([C@]34CC[C@](C)(C3)OC4)cn2cc1C(=O)Nc1cccn([C@@H]2C[C@H]2C)c1=O (single isomer, unassigned) [Example 141] | – | 0.4 | 43.2 (≈ 90.5 µM)
CC(C)Oc1nc2nc([C@]34CC[C@](C)(C3)OC4)cn2cc1C(=O)Nc1cccn([C@H]2C[C@@H]2C)c1=O (single isomer, unassigned) [Example 142] | – | 1.2 | 37 (≈ 77.5 µM)
CC(C)Oc1nc2nc([C@@]34CC[C@@](C)(C3)OC4)cn2cc1C(=O)Nc1cccn([C@@H]2C[C@H]2C)c1=O (single isomer, unassigned) [Example 148] | 2.6 | 1.2 | –
CC(C)Oc1nc2nc([C@@]34CC[C@@](C)(C3)OC4)cn2cc1C(=O)Nc1cccn([C@H]2CC23CC3)c1=O (single isomer, unassigned) [Example 150] | 1 | 2.7 | –

Compound | efflux ratio at 120 min, 1 μM [1] | IC50 [2] [nM] | solubility kinetic at 24 h [3] [µg/mL]
CC(C)Oc1nc2nc([C@@]34CC[C@@](C)(C3)OC4)cn2cc1C(=O)Nc1cccn([C@@H]2CC23CC3)c1=O (single isomer, unassigned) [Example 151] | 1.2 | 1.1 | –
CC(C)Oc1nc2nc([C@]34CC[C@](C)(C3)OC4)cn2cc1C(=O)Nc1cccn([C@@H]2CC23CC3)c1=O (single isomer, unassigned) [Example 153] | 1.5 | 1.7 | –
O=C(Nc1cccn([C@@H]2C[C@@H]2F)c1=O)c1cn2cc(C34COC(C3)C4)nc2nc1OC1CCC1 (single isomer, unassigned) [Example 166] | 2.6 | 41 | –
CC(C)Oc1cc2nc([C@@]34CC[C@@](C)(C3)OC4)cn2cc1C(=O)Nc1cccn([C@H]2C[C@H]2F)c1=O (single isomer, unassigned) [Example 169] | 10.4 | 0.3 | –
CC(C)Oc1cc2nc(C34CCC(C3)OC4)cn2cc1C(=O)Nc1cccn(C2CC2)c1=O (stereo not shown) [Example 38, 2-(2-oxabicyclo[2.2.1]heptan-4-yl)-N-(1-cyclopropyl-2-oxo-1,2-dihydropyridin-3-yl)-7-isopropoxyimidazo[1,2-a]pyridine-6-carboxamide] | 7 | 0.3 | –
CCOc1nc2nc(C34COC(C)(C3)C4)cn2cc1C(=O)Nc1cccn(C2CC2)c1=O [Example 43, N-(1-cyclopropyl-2-oxo-1,2-dihydropyridin-3-yl)-7-ethoxy-2-(1-methyl-2-oxabicyclo[2.1.1]hexan-4-yl)imidazo[1,2-a]pyrimidine-6-carboxamide] | 10.3 | 1.3 | –
CC[C@@H](C)Oc1nc2nc([C@]34CC[C@](C)(C3)OC4)cn2cc1C(=O)Nc1cccn(C2CC2)c1=O [Example 51, 7-((R)-sec-butoxy)-N-(1-cyclopropyl-2-oxo-1,2-dihydropyridin-3-yl)-2-((1R,4S)-1-methyl-2-oxabicyclo[2.2.1]heptan-4-yl)imidazo[1,2-a]pyrimidine-6-carboxamide] | 3.1 | 1.8 | –
CC[C@@H](C)Oc1nc2nc(C34CCC(CF)(C3)OC4)cn2cc1C(=O)Nc1cccn(C2CC2)c1=O (stereo partly drawn) [Example 55, 7-((R)-sec-butoxy)-N-(1-cyclopropyl-2-oxo-1,2-dihydropyridin-3-yl)-2-(1-(fluoromethyl)-2-oxabicyclo[2.2.1]heptan-4-yl)imidazo[1,2-a]pyrimidine-6-carboxamide] | 4.7 | 1.1 | –
CC(C)Oc1c(C(=O)Nc2ccnn(C3CC3)c2=O)cn2cc(C34COC(C)(C3)C4)nc2c1F [Example 73, N-(2-cyclopropyl-3-oxo-2,3-dihydropyridazin-4-yl)-8-fluoro-7-isopropoxy-2-(1-methyl-2-oxabicyclo[2.1.1]hexan-4-yl)imidazo[1,2-a]pyridine-6-carboxamide] | 1 | 14 | –
CC(C)Oc1cc2nc(C34COC(C)(C3)C4)cn2cc1C(=O)Nc1cccn([C@@H]2C[C@@H]2C)c1=O [Example 133, 7-isopropoxy-2-(1-methyl-2-oxabicyclo[2.1.1]hexan-4-yl)-N-(1-((1R,2S)-2-methylcyclopropyl)-2-oxo-1,2-dihydropyridin-3-yl)imidazo[1,2-a]pyridine-6-carboxamide] | 4.3 | 21.4 | –
CC(C)Oc1cc2nc(C34COC(C)(C3)C4)cn2cc1C(=O)Nc1cccn([C@H]2C[C@@H]2C)c1=O [Example 140, 7-isopropoxy-2-(1-methyl-2-oxabicyclo[2.1.1]hexan-4-yl)-N-(1-((1S,2S)-2-methylcyclopropyl)-2-oxo-1,2-dihydropyridin-3-yl)imidazo[1,2-a]pyridine-6-carboxamide] | – | 1.1 | –
CC(C)Oc1c(C(=O)Nc2cccn([C@@H]3C[C@H]3C)c2=O)cn2cc(C34COC(C)(C3)C4)nc2c1F [Example 147, 8-fluoro-7-isopropoxy-2-(1-methyl-2-oxabicyclo[2.1.1]hexan-4-yl)-N-(1-((1R,2R)-2-methylcyclopropyl)-2-oxo-1,2-dihydropyridin-3-yl)imidazo[1,2-a]pyridine-6-carboxamide] | 1.5 | 15.9 | –
CC(C)Oc1cc2nc([C@]34CC[C@](C)(C3)OC4)cn2cc1C(=O)Nc1cccn([C@@H]2C[C@@H]2C)c1=O [Example 181, 7-isopropoxy-2-((1R,4S)-1-methyl-2-oxabicyclo[2.2.1]heptan-4-yl)-N-(1-((1R,2S)-2-methylcyclopropyl)-2-oxo-1,2-dihydropyridin-3-yl)imidazo[1,2-a]pyridine-6-carboxamide trifluoroacetate] | 5.3 | 24.9 | –
CC(C)Oc1cc2nc([C@@]34CC[C@@](C)(C3)OC4)cn2cc1C(=O)Nc1cccn([C@@H]2C[C@@H]2C)c1=O [Example 183, 7-isopropoxy-2-((1S,4R)-1-methyl-2-oxabicyclo[2.2.1]heptan-4-yl)-N-(1-((1R,2S)-2-methylcyclopropyl)-2-oxo-1,2-dihydropyridin-3-yl)imidazo[1,2-a]pyridine-6-carboxamide trifluoroacetate] | 2.9 | 15.4 | –
C[C@H]1C[C@H]1n1cccc(NC(=O)c2cn3cc(C45COC(C)(C4)C5)nc3nc2OC2CCC2)c1=O [Example 189, 7-cyclobutoxy-2-(1-methyl-2-oxabicyclo[2.1.1]hexan-4-yl)-N-(1-((1R,2S)-2-methylcyclopropyl)-2-oxo-1,2-dihydropyridin-3-yl)imidazo[1,2-a]pyrimidine-6-carboxamide trifluoroacetate] | 3.4 | 34.6 | –
